Measurements reported in article PMC5481817, “Developing Targeted Hybrid Imaging Probes by Chelator Scaffolding” (Bioconjugate chemistry, 2017).
One block for each compound: values may come before it. *1 amine or outer side, *2 acyl side, *3 side chain or, on linkers, in order; H or OH if unused. Where a SMILES comes first, the peptide text is derived from it. Bridges are numbered along the chain shown (N, C = ends). Roman numbers before positions name the chains, in order. [ ]: non-standard residue; d: D form. X2 = CC1=CC(=O)N(O)CCCC(NC(=O)CCN2C(=O)CC([*:2])C2=O)C(=O)OCCC(C)=CC(=O)N(O)CCCC(NC(=O)CCN2C(=O)CC([*:1])C2=O)C(=O)OCCC(C)=CC(=O)N(O)CCCC(NC(=O)CCCCC[N+]2=C(C=CC3=CC(=CC=C4N(C)c5ccc(S(=O)(=O)O)cc5C4(C)C)CCC3)C(C)(C)c3cc(S(=O)(=O)[O-])ccc32)C(=O)OCC1; Mpa = O=C(O)CCS

How the values were obtained:
human CCK-2 receptor = molecular target: T1, human CCK-2 receptor (Homo sapiens, UniProt P32239); assay: Whole cell receptor binding affinity (displacement of [125I]-[Leu15]-Gastrin I) on A431-CCK2R cells; details: metal-bound ([natGa]) complexed form
T1 construct: expressed in transfected cells; host or cells: A431 human squamous carcinoma cells (gift from L. Aloj)
T1 sequence (P32239 1-447): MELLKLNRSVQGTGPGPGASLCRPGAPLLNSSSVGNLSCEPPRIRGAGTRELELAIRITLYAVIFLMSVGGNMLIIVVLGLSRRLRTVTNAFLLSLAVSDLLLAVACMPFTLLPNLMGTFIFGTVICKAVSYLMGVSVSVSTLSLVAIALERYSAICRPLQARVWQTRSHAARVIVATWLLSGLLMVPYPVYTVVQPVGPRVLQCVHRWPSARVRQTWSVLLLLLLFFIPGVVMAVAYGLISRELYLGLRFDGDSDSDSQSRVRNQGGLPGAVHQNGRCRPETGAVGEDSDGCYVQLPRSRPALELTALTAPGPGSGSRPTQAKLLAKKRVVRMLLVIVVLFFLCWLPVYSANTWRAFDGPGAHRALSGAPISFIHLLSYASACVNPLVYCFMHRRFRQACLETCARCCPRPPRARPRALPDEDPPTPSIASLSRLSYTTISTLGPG
Protocol: (§1) Receptor binding affinities were evaluated via a displacement cell-binding assay for metal free as well as metal bound ([^natGa]) conjugates. Binding of nonradioactive gallium was performed in analogy to the radiolabeling procedure but instead of the generator eluate a 100-fold molar excess of gallium bromide (GaBr3) dissolved in 100 μL 0.1 N HCl was used. Cells were prepared as described below and incubated with increasing concentrations [0.001–1000 nM] of competitor in triplicate. After addition of corresponding iodinated radioligand the 96-well MulitScreen Filter Plates HTS (1 μm glass fiber filter, Merck Millipore, Darmstadt, Germany) were incubated for 1 or 2 h at RT under shaking conditions (Compact shaker KS-15 control, 200/min) and after a washing step the remaining activity on the filter was measured in the γ-counter. The receptor affinity of DOTA-minigastrin11 as well as c(RGDyV) were determined under the corresponding conditions as a reference. IC50 values were calculated by using nonlinear curve fitting with following formula NS+SB/(1+x/IC50) on Origin 6.1 software (Northampton, MA, USA). A detailed description regarding iodination can be found in the Supporting Information.
A431-CCK2R cells were diluted in 50 mM HEPES buffer (pH 7.3) containing 5 mM MgCl2 and 0.3% BSA to a density of 5 × 10^6 cells/mL. 96-well plates were washed with 200 μL of 10 mM TRIS buffered saline (pH 7.3) and 100 μL of cell suspension were added to each well. Hereafter 50 μL of competitor solution {([^natGa])Sulfo-Cy7-FSC-MG or DOTA-minigastrin^11 diluted in 20 mM HEPES; 10 mM MgCl2 and 0.1% BSA} of each concentration were added and left for 10 min at RT. After incubation with 50 μL of radioligand (human [^125I]-[Leu^15]-Gastrin I 4.5 × 10^4 cpm) for 1 h the plate was washed twice with 200 μL TRIS-buffer/well.

integrin αvβ3 = molecular target: T2, integrin αvβ3 (Homo sapiens, UniProt P05106+P06756); assay: Integrin binding affinity assay (displacement of [125I]-c(RGDyV)) on M21 cells
T2 construct: endogenous in cells; host or cells: human melanoma M21 cells (gift from D. A. Cheresh)
Protocol: as §1
Integrin binding affinity assay was adapted from Yun Wu et al.[31] Briefly, M21 cells were washed two times with phosphate buffered saline followed by suspension in binding buffer (=20 mM TRIS pH 7.4 + 150 mM NaCl + 2 mM CaCl2 + 1 mM MgCl2 + 1 mM MnCl2 0.1% BSA). 96-well plates were washed with 200 μL of 20 mM TRIS-buffer and seeded with 1 × 10^6 cells/well (10^7 cells/mL). After 10 min of incubation in the presence of the competitor {([^natGa])Sulfo-Cy7-FSC-RGD or c(RGDyV) diluted in binding buffer)} volume was adjusted to 200 μL/well by adding 50 μL of radioligand ([^125I]-c(RGDyV), 4.5 × 10^4 cpm) and the plate was left for 2 h at RT. Finally the supernatant was removed by vacuum and each well was washed three times with 200 μL ice-cold binding buffer.

T2 sequence (P06756 31-889 limits assumed): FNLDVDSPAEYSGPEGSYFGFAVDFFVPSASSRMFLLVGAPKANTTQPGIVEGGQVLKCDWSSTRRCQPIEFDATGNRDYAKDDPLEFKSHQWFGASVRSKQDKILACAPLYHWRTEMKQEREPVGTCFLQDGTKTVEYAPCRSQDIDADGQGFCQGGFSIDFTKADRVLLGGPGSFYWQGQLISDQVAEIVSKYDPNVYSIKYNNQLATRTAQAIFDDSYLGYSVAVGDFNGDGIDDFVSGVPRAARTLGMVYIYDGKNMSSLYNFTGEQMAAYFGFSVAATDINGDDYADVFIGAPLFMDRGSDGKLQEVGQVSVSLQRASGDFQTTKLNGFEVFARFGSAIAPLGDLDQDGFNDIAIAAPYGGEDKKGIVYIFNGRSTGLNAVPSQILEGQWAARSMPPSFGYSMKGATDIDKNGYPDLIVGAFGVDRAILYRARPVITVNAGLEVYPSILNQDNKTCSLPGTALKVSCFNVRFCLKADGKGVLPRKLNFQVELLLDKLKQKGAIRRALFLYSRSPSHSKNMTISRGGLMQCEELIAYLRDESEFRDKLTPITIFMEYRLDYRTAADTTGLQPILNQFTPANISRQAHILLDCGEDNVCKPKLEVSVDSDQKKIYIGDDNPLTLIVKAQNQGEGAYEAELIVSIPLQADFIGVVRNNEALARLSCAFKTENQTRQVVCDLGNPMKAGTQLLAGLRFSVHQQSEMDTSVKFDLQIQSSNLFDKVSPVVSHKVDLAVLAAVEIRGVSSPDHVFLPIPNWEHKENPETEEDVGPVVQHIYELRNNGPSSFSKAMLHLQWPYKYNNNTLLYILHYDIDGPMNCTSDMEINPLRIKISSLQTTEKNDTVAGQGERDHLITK
T2 sequence (P06756 891-1048 partner limits assumed): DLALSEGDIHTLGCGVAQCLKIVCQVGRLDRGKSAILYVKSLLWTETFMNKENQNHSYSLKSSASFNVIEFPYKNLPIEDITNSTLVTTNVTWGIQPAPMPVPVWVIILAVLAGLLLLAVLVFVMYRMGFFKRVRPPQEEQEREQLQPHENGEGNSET
T2 sequence (P05106 27-788): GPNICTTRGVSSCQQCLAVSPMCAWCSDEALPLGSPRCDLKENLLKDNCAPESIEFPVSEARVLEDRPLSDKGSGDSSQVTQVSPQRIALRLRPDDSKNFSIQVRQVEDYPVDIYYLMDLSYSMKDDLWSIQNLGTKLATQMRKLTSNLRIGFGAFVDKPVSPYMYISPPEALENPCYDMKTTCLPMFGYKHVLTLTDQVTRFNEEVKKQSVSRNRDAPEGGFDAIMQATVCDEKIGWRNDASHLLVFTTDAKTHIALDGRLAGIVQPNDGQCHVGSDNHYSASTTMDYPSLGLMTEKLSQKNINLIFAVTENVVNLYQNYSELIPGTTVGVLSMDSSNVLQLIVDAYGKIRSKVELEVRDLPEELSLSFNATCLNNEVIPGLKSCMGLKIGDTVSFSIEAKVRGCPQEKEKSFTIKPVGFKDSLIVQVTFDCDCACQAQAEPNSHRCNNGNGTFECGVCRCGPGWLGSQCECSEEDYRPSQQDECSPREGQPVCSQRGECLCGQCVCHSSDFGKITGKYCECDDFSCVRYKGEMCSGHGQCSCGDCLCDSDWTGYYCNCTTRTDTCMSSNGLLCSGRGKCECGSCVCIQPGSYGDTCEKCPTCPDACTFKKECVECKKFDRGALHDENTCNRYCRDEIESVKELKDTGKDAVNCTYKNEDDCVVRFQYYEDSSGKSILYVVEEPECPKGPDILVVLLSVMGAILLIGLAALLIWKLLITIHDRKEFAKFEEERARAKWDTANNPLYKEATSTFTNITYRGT

- IC50 (human CCK-2 receptor): 2.68 ± 0.53 nM
Structure (SMILES): CSCC[C@H](NC(=O)[C@H](Cc1c[nH]c2ccccc12)NC(=O)CNC(=O)[C@H](Cc1ccc(O)cc1)NC(=O)[C@H](C)NC(=O)[C@@H](CCC(=O)O)NC(=O)CCSC1CC(=O)N(CCC(=O)NC2CCCN(O)C(=O)C=C(C)CCOC(=O)C(NC(=O)CCN3C(=O)CC(SCCC(=O)N[C@H](CCC(=O)O)C(=O)N[C@@H](C)C(=O)N[C@@H](Cc4ccc(O)cc4)C(=O)NCC(=O)N[C@@H](Cc4c[nH]c5ccccc45)C(=O)N[C@@H](CCSC)C(=O)N[C@@H](CC(=O)O)C(=O)N[C@@H](Cc4ccccc4)C(N)=O)C3=O)CCCN(O)C(=O)C=C(C)CCOC(=O)C(NC(=O)CCCCC[N+]3=C(C=CC4=CC(=CC=C5N(C)c6ccc(S(=O)(=O)O)cc6C5(C)C)CCC4)C(C)(C)c4cc(S(=O)(=O)[O-])ccc43)CCCN(O)C(=O)C=C(C)CCOC2=O)C1=O)C(=O)N[C@@H](CC(=O)O)C(=O)N[C@@H](Cc1ccccc1)C(N)=O (stereo partly drawn) [[^natGa]Sulfo-Cy7-FSC-MG, metal not drawn] (I: [Mpa][dE]AYGWMDF-NH2 / II: [Mpa][dE]AYGWMDF-NH2; linker I:1-II:1 via X2)

- IC50 (integrin αvβ3; [natGa] bound form): 0.81 ± 0.19 nM
Structure (SMILES): CC1=CC(=O)N(O)CCCC(NC(=O)CCN2C(=O)CC(SCCOCCOCCOCCOCCC(=O)NCCCC[C@@H]3NC(=O)[C@@H](Cc4ccccc4)NC(=O)[C@H](CC(=O)O)NC(=O)CNC(=O)[C@H](CCCNC(=N)N)NC3=O)C2=O)C(=O)OCCC(C)=CC(=O)N(O)CCCC(NC(=O)CCN2C(=O)CC(SCCOCCOCCOCCOCCC(=O)NCCCC[C@@H]3NC(=O)[C@@H](Cc4ccccc4)NC(=O)[C@H](CC(=O)O)NC(=O)CNC(=O)[C@H](CCCNC(=N)N)NC3=O)C2=O)C(=O)OCCC(C)=CC(=O)N(O)CCCC(NC(=O)CCCCC[N+]2=C(C=CC3=CC(=CC=C4N(C)c5ccc(S(=O)(=O)O)cc5C4(C)C)CCC3)C(C)(C)c3cc(S(=O)(=O)[O-])ccc32)C(=O)OCC1 (stereo partly drawn) [[^natGa]Sulfo-Cy7-FSC-RGD, metal not drawn]

- IC50 (integrin αvβ3; metal-free conjugate or reference peptide, radioligand [125I]-c(RGDyV), 2 h RT): 15.2 ± 2.86 nM
Structure (SMILES): CC(C)[C@@H]1NC(=O)[C@@H](Cc2ccc(O)cc2)NC(=O)[C@H](CC(=O)O)NC(=O)CNC(=O)[C@H](CCCNC(=N)N)NC1=O [c(RGDyV), reference compound]
